Data: patent publication US8546357B2, “Boron-containing small molecules for controlling ectoparasites” (priority 2011, dated 2013)

Key:
[1] = tested on: Lone star tick larvae (Amblyomma americanum); experiment: Larval immersion microassay against larval-stage Lone star ticks; details: Amblyomma americanum, 24 h, read-out: activity (percent larval mortality)
Protocol: The larval immersion microassay was conducted as described in detail in White, et al., J. Med. Entomol. 41: 1034-1042 (2004). Compounds of the invention were formulated in dimethylsulfoxide (DMSO) to prepare a stock solution at a concentration of at least 10 mM. Using 96-well microtiter plates, an aliquot of the mM sample was subsequently diluted in a water-based solution containing 1% ethanol and 0.2% Triton X-100, to obtain the desired concentration (typically 0.3 mM or lower) of compound in a volume of 0.1 ml (minimum n=3 replicates per compound or concentration). Approximately 30-50 Lone star tick larvae (Amblyomma americanum) were submerged into each well containing compounds. After a 30 minute immersion period, larvae were removed with a wide-bore pipette tip in 0.05 ml of fluid, dispensed into a commercial paper tissue biopsy bag which was sealed at the top with a plastic dialysis clip, inverted and allowed to air dry for 60 minutes. Bags containing larvae were then incubated at approximately 27 degrees Celsius and >90% relative humidity. After 24 hours, bags were opened, live and dead larvae were counted and percent larval mortality was calculated.
7 and 8 contain one chiral center each, and are racemic mixtures comprised of approximately 50% R- and 50% S-enantiomer. In vitro and surrogate animal (rat) studies were conducted to evaluate the biological activity of the R- and S-enantiomers of 7 and 8. For the in vitro study, larvae of the Lone star tick (Amblyomma americanum) were exposed to 9, 10, 11 and 12 using the larval immersion microassay at a concentration of no greater than 0.3 mM. Following exposure, larvae were removed, transferred to a tissue biopsy bag and incubated at approximately 27 degrees Celsius and >90% relative humidity. After 24 hours, biopsy bags were opened and the numbers of live and dead larvae were determined

[2] = tested on: adult American dog tick (Dermacentor variabilis); experiment: Therapeutic (knockdown) and residual efficacy against adult American dog tick infestations on dogs, oral; type: in vivo
Protocol: (§1) The therapeutic (knockdown) and residual efficacy of 5, administered orally at a point dose of 25 mg/kg bodyweight, was evaluated against adult American dog tick (D. variabilis) infestations on dogs. Six beagle dogs were allocated to one of two treatment groups, an untreated control group (n=4 dogs) or 5 group (n=2 dogs). On Day 0, two dogs were treated with 5 via oral gavage (25 mg/ml 5, dissolved in a solution of 55% polyethylene glycol-300, 35% propylene glycol and 10% water) at a point dose of approximately 25 mg/kg. Twenty-four (24) hours before treatment (Day −1), all dogs were infested with approximately 50 unfed, adult-stage American dog ticks (D. variabilis; approximately 50% male and 50% female). On Day 1, approximately 24 hours after treatment, thumb counts were conducted to determine the number and life-status classification of ticks present on all dogs (normal, moribund or dead; attached or detached). Ticks were not removed during thumb counts. On Day 2, approximately 48 hours after treatment, all ticks were classified and removed from dogs. Dogs were re-infested with approximately 50 unfed, adult D. variabilis ticks on Days 5 and 12, with tick classification, counts and removal on Days 7 and 14 (approximately 48 hours after each infestation).
(§2) The therapeutic (knockdown) and residual efficacy of 7 and 8, each administered orally at a point dose of 25 mg/kg bodyweight, was evaluated against adult tick (Dermacentor variabilis and Rhipicephalus sanguineus) and adult cat flea (Ctenocephalides felis) infestations on dogs. Twelve (12) male and female beagle dogs were randomly allocated to one of three treatment groups, four (4) dogs per group: Untreated control; 7, 25 mg/kg; and 8, 25 mg/kg. On Day −1, all dogs were infested with approximately 50 unfed, adult D. variabilis ticks. On Day 0, dogs were orally administered gelatin capsules containing either 7 or 8 (50% technical active, 47% microcrystalline cellulose and 3% croscarmellose sodium, w/w). Ticks were counted and classified, but not removed, on all dogs on Day 1, approximately 24 hours after treatment. On Day 2, approximately 48 hours after treatment, ticks were counted, classified and removed. Dogs were re-infested with the same number of D. variabilis ticks on Days 5, 12, 19 and 28 and tick counts were conducted on Days 7, 14, 21 and 30.
(§3) The therapeutic (knockdown) and residual efficacy of 7, administered orally at a point dose of 35 mg/kg bodyweight, was evaluated against adult tick (Dermacentor variabilis and Rhipicephalus sanguineus) and adult cat flea (Ctenocephalides felis) infestations on dogs. Twelve (12) male and female beagle dogs were allocated to either an untreated, negative control group or 7 group (n=6 dogs per group). Dogs were infested with approximately 50 unfed, adult D. variabilis ticks on Days −1, 5, 12, 19, 28, 35 and 42. On Day 0, dogs were orally administered gelatin capsules containing Compound 8194 (50% technical active, 47% microcrystalline cellulose and 3% croscarmellose sodium, w/w) at a point dose of 35 mg/kg. D. variabilis tick counts and classification were conducted on Day 1 (thumb count, approximately 24 hours after treatment) and Days 2, 7, 14, 21, 30, 37 and 44 (approximately 48 hours after treatment). Following removal of D. variabilis ticks on Day 30, all dogs were co-infested with approximately 50 unfed, adult brown dog ticks (R. sanguineus) and approximately 100 unfed, adult cat fleas (C. felis). Brown dog tick and cat flea counts were conducted on Day 32 (approximately 48 hours after infestation). GM percent efficacy of treatments against both tick species and fleas was calculated using the following formula: […]
The therapeutic (knockdown) and residual efficacy of S-enantiomer, 9, administered orally at a point dose of 25 mg/kg bodyweight, was evaluated against adult tick (Dermacentor variabilis and Rhipicephalus sanguineus) and adult cat flea (Ctenocephalides felis) infestations on dogs. […]

[3] = tested on: brown dog tick (Rhipicephalus sanguineus); experiment: Residual efficacy against adult brown dog tick infestations on dogs, oral; type: in vivo; details: Day 32
Protocol: (§4) Immediately following removal of D. variabilis ticks on Day 30, dogs were co-infested with approximately 50 adult, unfed brown dog ticks (R. sanguineus, approximately 50% male and 50% female) and approximately 100 adult, unfed cat fleas (C. felis, approximately 50% male and 50% female). Ticks and fleas were counted and removed on Day 32 (approximately 48 hours after infestation). GM percent efficacy of treatments against both tick species and fleas was calculated using the following formula: […]
as §3
(§5) The therapeutic (knockdown) and residual efficacy of S-enantiomer, 9, administered orally at a point dose of 25 mg/kg bodyweight, was evaluated against adult tick (Dermacentor variabilis and Rhipicephalus sanguineus) and adult cat flea (Ctenocephalides felis) infestations on dogs. Twelve (12) male and female beagle dogs were allocated to either an untreated, negative control group or 9 group (n=6 dogs per group). Dogs were infested with approximately 50 unfed, adult D. variabilis ticks on Days −1, 5, 12, 19, and 28. On Day 0, dogs were orally administered gelatin capsules containing 9 (50% technical active, 47% microcrystalline cellulose and 3% croscarmellose sodium, w/w) at a point dose of 25 mg/kg. D. variabilis tick counts and classification were conducted on Day 1 (thumb count, approximately 24 hours after treatment) and Days 2, 7, 14, 21 and 30 (approximately 48 hours after treatment). Following removal of D. variabilis ticks on Day 30, all dogs were co-infested with approximately 50 unfed, adult brown dog ticks (R. sanguineus) and approximately 100 unfed, adult cat fleas (C. felis). Brown dog tick and cat flea counts were conducted on Day 32 (approximately 48 hours after infestation). GM percent efficacy of treatments against both tick species and fleas was calculated using the following formula: […]

[4] = tested on: cat flea (Ctenocephalides felis); experiment: Residual efficacy against adult cat flea infestations on dogs, oral; type: in vivo; details: Day 32
Protocol: as §4, §3, §5

[5] = Tolerability of oral treatment in dogs; type: in vivo, dog
Protocol: as §1, §2
The therapeutic (knockdown) and residual efficacy of 7, administered orally at a point dose of 35 mg/kg bodyweight, was evaluated against adult tick (Dermacentor variabilis and Rhipicephalus sanguineus) and adult cat flea (Ctenocephalides felis) infestations on dogs. Twelve (12) male and female beagle dogs were allocated to either an untreated, negative control group or 7 group (n=6 dogs per group). Dogs were infested with approximately 50 unfed, adult D. variabilis ticks on Days −1, 5, 12, 19, 28, 35 and 42. On Day 0, dogs were orally administered gelatin capsules containing Compound 8194 (50% technical active, 47% microcrystalline cellulose and 3% croscarmellose sodium, w/w) at a point dose of 35 mg/kg. […] GM percent efficacy of treatments against both tick species and fleas was calculated using the following formula: […]
The therapeutic efficacy and speed of kill of 7, administered orally at a point dose of 20 mg/kg bodyweight, was evaluated against adult cat flea (Ctenocephalides felis) infestations on dogs. […]

[6] = tested on: American dog tick (Dermacentor variabilis) nymphs; experiment: Efficacy against nymphal-stage American dog ticks on rats, oral; type: in vivo; details: fipronil positive control, oral 10 mg/kg bodyweight, all studies
Protocol: Evaluations were conducted using a modified version of the assay as described in Gutierrez et al., J. Med. Entomol. 43(3): 526-532 (2006). This assay may be modified by simply using different tick species (the reference describes Amblyomma americanum ticks), such as Dermacentor variabilis or Rhipicephalus sanguineus ticks, as well as different life-stages (larval, nymphal or adult). Further, the reference describes using topical application methods, but oral, transdermal and subcutaneous injection routes of administration may be used.
In these studies, adult male or female rats, approximately 300 grams in size, were randomly assigned to a treatment group or a control (untreated negative control or fipronil positive control) group. Each group consisted of three (3) to five (5) rats. […] On Day 2, approximately forty-eight (48) hours after treatment, live and dead ticks were removed from animals and counted.
Live tick counts were transformed using the natural logarithm transformation plus one (Ln count+1); addition of one to each count served to adjust for counts that were zero. […] GM percent efficacy of treatments was calculated using the following formula:
Enantiomers were evaluated for activity against American dog tick (Dermacentor variabilis) nymphs on rats. […] On Day 2, approximately forty-eight (48) hours after treatment, live and dead ticks were removed from animals and counted. […]

[7] = Table 2, oral capsule 25 mg/kg, Day 2
[8] = Table 2, oral capsule 25 mg/kg, Day 7
[9] = Table 2, oral capsule 25 mg/kg, Day 14
[10] = Table 2, oral capsule 25 mg/kg, Day 21
[11] = Table 2, oral capsule 25 mg/kg, Day 30
[12] = Table 6, oral capsule 25 mg/kg, Day 2
[13] = Table 6, oral capsule 25 mg/kg, Day 7
[14] = Table 6, oral capsule 25 mg/kg, Day 14
[15] = Table 6, oral capsule 25 mg/kg, Day 21

## Cc1cc(C2=NOC(c3cc(Cl)c(F)c(Cl)c3)(C(F)(F)F)C2)ccc1C(=O)NCc1ccc2c(c1)B(O)OC2(C)C (racemic) [Compound 8, 4-(5-(3,5-Dichloro-4-fluorophenyl)-5-(trifluoromethyl)-4,5-dihydroisoxazol-3-yl)-N-((1-hydroxy-3,3-dimethyl-1,3-dihydrobenzo[c][1,2]oxaborol-6-yl)methyl)-2-methylbenzamide]
[1]
  mortality at 300 µM: ≥ 80%
[2]; Example 6, oral capsule 25 mg/kg, through at least 14 days
  continued residual efficacy: 100%
[2]; Table 2, oral capsule 25 mg/kg, Day 1
  Geometric mean group live parasite counts: 0.0
[2]; [7]
  % efficacy: (100) %
  Geometric mean group live parasite counts: 0.0
[2]; [8]
  % efficacy: (100) %
  Geometric mean group live parasite counts: 0.0
[2]; [9]
  % efficacy: (100) %
  Geometric mean group live parasite counts: 0.0
[2]; [10]
  % efficacy: (98.4) %
  Geometric mean group live parasite counts: 0.7
[2]; [11]
  % efficacy: (81.0) %
  Geometric mean group live parasite counts: 6.7
[3]; Table 2, oral capsule 25 mg/kg
  Geometric mean group live parasite counts: 4.1
[4]; Table 2, oral capsule 25 mg/kg
  Geometric mean group live parasite counts: 7.1
[5]; Example 6, oral capsule 25 mg/kg
  tolerability: well tolerated

## Cc1cc(C2=NO[C@@](c3cc(Cl)c(Cl)c(Cl)c3)(C(F)(F)F)C2)ccc1C(=O)NCc1ccc2c(c1)B(O)OC2(C)C [Compound 9, (S)—N-((1-hydroxy-3,3-dimethyl-1,3-dihydrobenzo[c][1,2]oxaborol-6-yl)methyl)-2-methyl-4-(5-(3,4,5-trichlorophenyl)-5-(trifluoromethyl)-4,5-dihydroisoxazol-3-yl)benzamide]
[1]
  mortality at 300 µM: ≥ 80%
[2]; Example 10, oral capsule 25 mg/kg, through Day 21
  continued residual efficacy: 100%
[2]; Table 6, oral capsule 25 mg/kg, Day 1
  Geometric mean group live parasite counts: 0.0
[2]; [12]
  % efficacy: (100) %
  Geometric mean group live parasite counts: 0.0
[2]; [13]
  % efficacy: (100) %
  Geometric mean group live parasite counts: 0.0
[2]; [14]
  % efficacy: (100) %
  Geometric mean group live parasite counts: 0.0
[2]; [15]
  % efficacy: (100) %
  Geometric mean group live parasite counts: 0.0
[2]; Table 6, oral capsule 25 mg/kg, Day 30
  Geometric mean group live parasite counts: 1.1
[3]; Table 6, oral capsule 25 mg/kg
  Geometric mean group live parasite counts: 0.5
[4]; Table 6, oral capsule 25 mg/kg
  Geometric mean group live parasite counts: 0.9
[5]; Example 10, oral capsule 25 mg/kg
  tolerability: well tolerated

## N#Cc1nn(-c2c(Cl)cc(C(F)(F)F)cc2Cl)c(N)c1[S+]([O-])C(F)(F)F (centres unmarked) [Fipronil, fipronil, reference compound]
[6]
  efficacy (% reduction in live tick counts): > 95%
